Reference: publication PMC10145446, “Developing a Formulation Strategy Coupled with PBPK Modeling and Simulation for the Weakly Basic Drug Albendazole” (Pharmaceutics, 2023)
≈ marks a conversion by molar mass, not a printed value. Read-outs that look alike come from different tables or passages of the source.

How the values were obtained:
[1] = PBPK model simulation in Healthy Human Volunteer Population; details: healthy volunteers, albendazole 400 mg oral
Procedure: Clinically observed plasma profiles of ABZ and ABZ_SO were digitized from a published study using WebPlotDigitizer (Version 4.2, Austin, TX, USA), and the systemic exposure parameters (Cmax, AUC) were used to verify the model. PBPK model simulations were performed using the Healthy Human Volunteer Population according to the design of the referenced clinical study: 10 subjects (6 male, 4 female), aged 21 to 44 years, single oral dose of albendazole (400 mg). Model verification was based on visual inspection of the simulated ABZ and ABZ_SO mean plasma versus time profiles compared to observed data, and the fold error (ratio of model predicted and observed values) for Cmax and AUC of ABZ and ABZ_SO.

[2] = design: method as in Literature; details: ref Literature; cited from earlier work
[3] = design: method as in PMID 29403987; details: healthy volunteers, single oral dose of albendazole 400 mg; ref [41]; cited from earlier work
[4] = cited from earlier work
[5] = Equilibrium solubility by shake flask method; type: physicochemical
Procedure: The equilibrium solubility of ABZ was measured by the shake flask method at 37 ± 2 °C in different pH solution systems: 0.1 N HCl (pH 1.20 ± 0.01 and pH 2.0 ± 0.01), 0.02 M acetate buffer (pH 4.5 ± 0.02), and 0.05 M phosphate buffer (pH 6.8 ± 0.01). Solubility was also determined in FaSSGF (pH 1.6 ± 0.01), FaSSIF (pH 6.5 ± 0.01), and FeSSIF (pH 5.0 ± 0.01) containing bile concentrations of 0.08 mM, 3 mM, and 15 mM, respectively. For each experiment, an excess amount of ABZ (~10 mg) was dispersed in 3 mL of solution. A sample was collected after 72 h and filtered using 0.45 µm polytetrafluoroethylene membrane disc filters (Pall Corp., New York, NY, USA). The samples were analyzed using a validated HPLC method. All experiments were performed in triplicate. The pH solubility profile and biorelevant solubility data for ABZ were analyzed using Simcyp™ In Vitro Data Analysis (SIVA, Certara UK Ltd., Sheffield, UK) software in order to estimate intrinsic solubility and the micelle-buffer partition coefficient (log Km:w). These parameter values were incorporated into the PBPK model for ABZ.

[6] = Particle size distribution by laser diffraction; type: physicochemical; details: pure ABZ
Procedure: Particle size distribution (PSD) data for the marketed formulation are not publicly available. […] The particle size distribution of ABZ was measured by laser diffraction using a Mastersizer 3000 equipped with Aero S (dry dispersion feeder unit). The instrument software was used to calculate d10, d50, and d90, representing the volume percentage or portion of particles below the 10th, 50th, and 90th percentiles, respectively. PSD was characterized as a Weibull distribution function, and the data were analyzed to estimate the Weibull parameter values and mean radiuses, which served as the input parameters in the model development.

[7] = Transfer system experiment (FaSSGF to FaSSIF) for precipitation kinetics; type: physicochemical; details: for Precipitation rate constant (PRC): max. value
Procedure: These experiments were carried out in order to characterize the precipitation kinetics of ABZ in a system designed to mimic the physiologic conditions in the GI tract as the drug moves from the stomach to the small intestine, where precipitation is inevitable and limits the availability of the soluble drug for absorption. To simulate the impact on solubility when the drug transits from the stomach into the intestine, the experimental system (Figure 1) consisted of two physiologically relevant compartments with allowances for modifications in transfer rate (representing the GI emptying rate), paddle speeds (representing the hydrodynamics inside the GI tract), and composition (representing fasted vs. fed conditions). A conventional dissolution system (Distek 5100, Distek Inc., North Brunswick Township, NJ, USA) with a USP-II paddle method was utilized. The gastric compartment contained FaSSGF media (250 mL, pH 1.6), and FaSSIF media (500 mL, pH 6.5), which constituted the intestinal compartment. FaSSIF was prepared with a higher buffer capacity to minimize pH changes after the complete transfer of the simulated gastric media. The paddle speed was maintained at 100 rpm for both compartments. The transfer was initiated after 30 min at a constant rate of 7 mL/min using an Econo™ Gradient pump (Bio-Rad Laboratories, Inc., Hercules, CA, USA). The following experiments were carried out: (a) 40 mg of free ABZ base (neat API) to maintain the sink condition in the gastric media. (b) Marketed immediate-release formulation (equivalent to 40 mg of ABZ) to maintain the sink condition and to determine the effect of excipients on promoting the supersaturation state. (c) Marketed immediate-release tablet formulation (400 mg of ABZ).
The gastric compartment was sampled at 5, 15, and 30 min, at which time the transfer to the intestinal compartment was initiated. Then, samples were collected from the intestinal compartment for an additional 90 min (32, 35, 40, 45, 50, 60, 75, 90, 105, and 120 min). Samples were filtered through 0.45 µm PTFE filters and immediately diluted with the mobile phase before quantitative analysis by HPLC. All dissolution experiments were performed in triplicate.

[8] = design: method as in PMID 7571717; details: in humans; ref [43]; cited from earlier work
[9] = physchem; details: aqueous pH solution systems (pH solubility profile), 37 °C, aqueous buffer, thermodynamic from solid
Procedure: The equilibrium solubility of ABZ was measured by the shake flask method at 37 ± 2 °C in different pH solution systems: 0.1 N HCl (pH 1.20 ± 0.01 and pH 2.0 ± 0.01), 0.02 M acetate buffer (pH 4.5 ± 0.02), and 0.05 M phosphate buffer (pH 6.8 ± 0.01). Solubility was also determined in FaSSGF (pH 1.6 ± 0.01), FaSSIF (pH 6.5 ± 0.01), and FeSSIF (pH 5.0 ± 0.01) containing bile concentrations of 0.08 mM, 3 mM, and 15 mM, respectively [25]. For each experiment, an excess amount of ABZ (~10 mg) was dispersed in 3 mL of solution. A sample was collected after 72 h and filtered using 0.45 µm polytetrafluoroethylene membrane disc filters (Pall Corp., New York, NY, USA). The samples were analyzed using a validated HPLC method. All experiments were performed in triplicate. The pH solubility profile and biorelevant solubility data for ABZ were analyzed using Simcyp™ In Vitro Data Analysis (SIVA, Certara UK Ltd., Sheffield, UK) software in order to estimate intrinsic solubility and the micelle-buffer partition coefficient (log Km:w). These parameter values were incorporated into the PBPK model for ABZ.
Data from dissolution experiments were used to estimate intrinsic solubility and bile-salt micelle-mediated solubilization using SIVA. Micelle buffer partition coefficients (log Km:w) for ABZ, both in neutral and ionic species of ABZ, were estimated using observed solubilities in biorelevant media.

[10] = tested on: CYP3A4; details: ref [36]; cited from earlier work
[11] = tested on: FMO3; details: ref [36]; cited from earlier work

Compound: CCC[S+]([O-])c1ccc2[nH]c(NC(=O)OC)nc2c1 (stereo not shown) [ABZ_SO, albendazole sulfoxide]
- Fold error, AUC0–∞ (predicted parameter/observed parameter) [1]: 0.97
- Fold error, Cmax (predicted parameter/observed parameter) [1]: 1.01
- fu (fraction unbound in plasma) [2]: 0.3
- AUC0–∞ (observed) [3]: 3475 ng·h/mL
- Cmax (Observed) [3]: 193.5 ng/mL
- pKa1 (Ampholyte) ([4]; PBPK input, ref [35]): 9.79
- Log Po:w ([4]; PBPK input, ref [38]): 1.17

Compound: CCCSc1ccc2nc(NC(=O)OC)[nH]c2c1 [ABZ, Albendazole]
- solubility at 72 h ([5]; 0.02 M acetate buffer, 37 °C, pH 4.5, aqueous buffer, thermodynamic from solid, pH 4.5 Acetate buffer, 37 ± 2.0 °C, read-out: Solubility): 8 ± 2 µg/mL (≈ 30.2 µM)
- solubility at 72 h ([5]; 0.05 M phosphate buffer, 37 °C, pH 6.8, aqueous buffer, thermodynamic from solid, pH 6.8, read-out: solubility): ~5 µg/mL (≈ 18.8 µM)
- solubility at 72 h ([5]; 0.05 M phosphate buffer, 37 °C, pH 6.8, aqueous buffer, thermodynamic from solid, pH 6.8 Phosphate buffer, 37 ± 2.0 °C, read-out: Solubility): 5 ± 1 µg/mL (≈ 18.8 µM)
- solubility at 72 h ([5]; 0.1 N HCl, 37 °C, pH 1.2, simulated gastric fluid, thermodynamic from solid, pH 1.2, read-out: maximum solubility): ~500 µg/mL (≈ 1880 µM)
- solubility at 72 h ([5]; 0.1 N HCl, 37 °C, pH 1.2, simulated gastric fluid, thermodynamic from solid, pH 1.2 HCl buffer, 37 ± 2.0 °C, read-out: Solubility): 515 ± 45 µg/mL (≈ 1940 µM)
- solubility at 72 h ([5]; 0.1 N HCl, pH 2, pH 2.0 HCl buffer, 37 ± 2.0 °C, read-out: Solubility): 25 ± 5 µg/mL (≈ 94.2 µM)
- solubility at 72 h ([5]; FaSSGF, 37 °C, pH 1.6, fassgf or other biorelevant, thermodynamic from solid, FaSSGF (pH 1.6), 37 ± 2.0 °C, read-out: Solubility): 146 ± 12 µg/mL (≈ 550 µM)
- solubility at 72 h ([5]; FaSSGF, 37 °C, pH 1.6, fassgf or other biorelevant, thermodynamic from solid, FaSSGF, read-out: solubility): ~146 µg/mL (≈ 550 µM)
- solubility at 72 h ([5]; FaSSIF, 37 °C, pH 6.5, fassif, thermodynamic from solid, FaSSIF (pH 6.5), 37 ± 2.0 °C, read-out: Solubility): 8 ± 1 µg/mL (≈ 30.2 µM)
- solubility at 72 h ([5]; FaSSIF, 37 °C, pH 6.5, fassif, thermodynamic from solid, FaSSIF, read-out: solubility): 8.2 µg/mL (≈ 30.9 µM)
- solubility in FeSSIF compared to FaSSIF ([5]; FeSSIF vs FaSSIF): 2 fold
- solubility at 72 h ([5]; FeSSIF, pH 5, FeSSIF (pH 5.0), 37 ± 2.0 °C, read-out: Solubility): 21 ± 4 µg/mL (≈ 79.1 µM)
- solubility at 72 h ([5]; FeSSIF, pH 5, FeSSIF, read-out: solubility): ~20.5 µg/mL (≈ 77.3 µM)
- d10 ([6]; laser diffraction): 0.95 ± 0.10 µm
- d50 ([6]; laser diffraction): 4.1 ± 0.64 µm
- d90 ([6]; laser diffraction): 22 ± 1.3 µm
- Particle size distribution, Mean Radius ([6]; polydispersed): 7.52 µm
- Particle size distribution, Weibull Alpha ([6]; polydispersed): 1.014
- Particle size distribution, Weibull Beta ([6]; polydispersed): 8.732
- dissolution in FaSSGF within 30 min ([7]; 40 mg dose, FaSSGF 250 mL pH 1.6): completely dissolved
- precipitation upon transfer to FaSSIF ([7]; 40 mg dose, FaSSIF pH 6.5): immediate precipitation
- Critical Supersaturation Ratio (CSR) ([7]; set from transfer experiment, FaSSIF): 1
- Precipitation rate constant (PRC) ([7]; set from transfer experiment): 1000 h⁻¹
- Precipitation rate constant (PRC) ([7]; set from transfer experiment, listed as Albendazole): 1000 (max. value) 1/h
- Fold error, AUC0–∞ (predicted parameter/observed parameter) [1]: 1.13
- Fold error, Cmax (predicted parameter/observed parameter) [1]: 1.16
- AUC0–∞ (observed) [3]: 53.0 ng·h/mL
- Cmax (Observed) [3]: 9.55 ng/mL
- absolute oral bioavailability [8]: < 5%
- solubility at 72 h [9]: 12 µg/mL (≈ 45.2 µM)
- Log Po:w ([4]; PBPK input, ref [34]): 2.7
- pKa1 (Ampholyte) ([4]; PBPK input, ref [35]): 10.3
- pKa2 (Ampholyte) ([4]; PBPK input, ref [35]): 2.8
- pKa1 (Ampholyte) ([4]; PBPK input, ref [35], listed as Albendazole): 10.26
- BCS class ([4]; low solubility and high permeability): BCS class II
- Km [10]: 10.1 µM
- Vmax [10]: 369 pmol/min/pmol
- Km [11]: 9.6 µM
- Vmax [11]: 1103 pmol/min/pmol
